Measurements taken from PMC7055688 (Journal of fluorine chemistry, 2019).
Converted amounts (≈) assume the structure as drawn.

Assays:
[1] = solubility in sodium phosphate buffer; assay type: physicochemical; settings: pH 7.4, aqueous buffer, kinetic from dmso stock
human sEH = target: T1, human sEH (Homo sapiens, UniProt P34913); test: kinetic fluorescent assay of sEH inhibitory potency; assay type: biochemical; settings: for fold drop of activity compared to 3a: ratio of IC50 to that of 3a; for fold increase of activity compared to 3a: ratio of IC50 of 3a to that of the compound
T1 sequence (P34913 1-555): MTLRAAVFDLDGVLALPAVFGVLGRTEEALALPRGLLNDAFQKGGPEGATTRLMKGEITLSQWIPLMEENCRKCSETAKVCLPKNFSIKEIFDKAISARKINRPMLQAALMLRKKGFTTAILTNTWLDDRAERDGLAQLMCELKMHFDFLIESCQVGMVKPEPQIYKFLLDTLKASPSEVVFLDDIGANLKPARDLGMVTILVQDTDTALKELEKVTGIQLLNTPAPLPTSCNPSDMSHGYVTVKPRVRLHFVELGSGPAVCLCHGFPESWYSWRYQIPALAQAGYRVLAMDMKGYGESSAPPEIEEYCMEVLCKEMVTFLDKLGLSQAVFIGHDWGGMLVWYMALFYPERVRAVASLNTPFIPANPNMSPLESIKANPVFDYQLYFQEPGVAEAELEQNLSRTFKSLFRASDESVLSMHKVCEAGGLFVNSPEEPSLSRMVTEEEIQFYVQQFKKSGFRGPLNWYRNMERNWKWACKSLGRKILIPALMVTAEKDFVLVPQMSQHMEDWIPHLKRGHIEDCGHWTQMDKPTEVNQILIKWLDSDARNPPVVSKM

[2] = experimental LogP by HPLC-MS; assay type: physicochemical

| Compound | solubility [1] | fold more active than 2-hydroxy substituted analog (human sEH) | fold more active than unsubstituted 1-(adamantan-1-yl)-3-phenyl urea (human sEH) | chromatographic logP [2] | fold drop of activity compared to 3a (human sEH) | fold increase of activity compared to 3a (human sEH) |
| --- | --- | --- | --- | --- | --- | --- |
| O=C(Nc1ccccc1F)NC12CC3CC(CC(C3)C1)C2 [3a, 1-(Adamantan-1-yl)-3-(2-fluorophenyl) urea] | 70 to 80 µM (≈ 20.2 to 23.1 µg/mL) | 37 fold | 4 fold | – | – | – |
| CCC(CC12CC3CC(CC(C3)C1)C2)NC(=O)Nc1ccccc1F (stereo not shown) [3d, 1-[1-(Adamantan-1-yl)butane-2-yl]-3-(2-fluorophenyl) urea] | 50 to 60 µM (≈ 17.2 to 20.7 µg/mL) | – | – | 5.8 | 170 fold | – |
| O=C(Nc1ccc(C23CC4CC(CC(C4)C2)C3)cc1)Nc1ccccc1F [3e, 1-[4-(Adamantan-1-yl)phenyl]-3-(2-fluorophenyl) urea] | 80 to 90 µM (≈ 29.2 to 32.8 µg/mL) | – | – | – | – | – |
| CC12CC3CC(C1)CC(NC(=O)Nc1ccccc1F)(C3)C2 [3f, 1-[3-methyl(Adamantan-1-yl)]-3-(2-fluorophenyl) urea] | 50 to 60 µM (≈ 15.1 to 18.1 µg/mL) | – | – | – | – | 2.5 fold |
| CC12CC3(C)CC(C)(C1)CC(NC(=O)Nc1ccccc1F)(C2)C3 [3h, 1-[3,5,7-trimethyl(Adamantan-1-yl)]-3-(2-fluorophenyl) urea] | 70 to 80 µM (≈ 23.1 to 26.4 µg/mL) | – | – | – | 25 fold | – |
| CCCC(CNC(=O)Nc1ccccc1F)C1C2CC3CC(C2)CC1C3 (stereo not shown) [3j, 1-[2-(Adamantan-2-yl)pentane-1-yl]-3-(2-fluorophenyl) urea] | – | – | – | 6.55 | – | – |

Second part, the compound after the results:

| solubility [1] | fold more active than 2-hydroxy substituted analog (human sEH) | fold more active than unsubstituted 1-(adamantan-1-yl)-3-phenyl urea (human sEH) | chromatographic logP [2] | fold drop of activity compared to 3a (human sEH) | fold increase of activity compared to 3a (human sEH) | Compound |
| --- | --- | --- | --- | --- | --- | --- |
| 60 to 70 µM (≈ 18.1 to 21.2 µg/mL) | – | – | 4.4 | – | – | O=C(NCC12CC3CC(CC(C3)C1)C2)Nc1ccccc1F [3b, 1-[(Adamantan-1-yl)methyl]-3-(2-fluorophenyl) urea] |
| 50 to 60 µM (≈ 15.8 to 19 µg/mL) | – | – | 4.75 | 15 fold | – | CC(NC(=O)Nc1ccccc1F)C12CC3CC(CC(C3)C1)C2 (stereo not shown) [3c, 1-[1-(Adamantan-1-yl)ethyl]-3-(2-fluorophenyl) urea] |
| 80 to 90 µM (≈ 23.1 to 26 µg/mL) | – | – | – | – | 3.7 fold | O=C(Nc1ccccc1F)NC1C2CC3CC(C2)CC1C3 (stereo not shown) [3i, 1-(Adamantan-2-yl)-3-(2-fluorophenyl) urea] |
